Data from US10946027B2, “Tianeptine oxalate salts and polymorphs” (Tonix Pharma Holdings Limited, priority 2016, dated 2021).
Like-named read-outs stand apart in the source and are kept apart here.

For `CN1c2ccccc2C(NCCCCCCC(=O)O)c2ccc(Cl)cc2S1(=O)=O.O=C(O)C(=O)O` (centres unmarked) [Tianeptine mono-oxalate Form A, Tianeptine Mono-Oxalate Form A], the solid form stability (40-60° C., high humidity (75% RH)) was “started to convert into tianeptine hemi-oxalate Form A”, the solid form stability (milled without water) was “stable” and the solid form stability (stored at 25° C. and 60-75% RH) was “stable”. For the same compound, the solid form stability (stored at 40-60° C. without humidity (RH≈0%)) was “stable” and the solid form stability (water kneading) was “started to convert into tianeptine hemi-oxalate Form A”.
